Assay results as given in patent publication US10287258B2, “Certain (2S)-N-[(1S)-1-cyano-2-phenylethyl]-1,4-oxazepane-2-carboxamides as dipeptidyl peptidase 1 inhibitors” (AstraZeneca AB, priority 2014, dated 2019).

These compounds were tested against recombinant human DPP1 (rhDPP1) (Homo sapiens (Human), UniProt P53634) (assay: Test A1: Fluorescence assay for recombinant human (RH) DPP1). Settings: Test A1 (Examples 1-35); rhDPP1 ~50 pM, 100 μM H-Gly-Arg-AMC, pH 5.0, 22° C.
recombinant human DPP1 (rhDPP1), sequence (P53634 231-394): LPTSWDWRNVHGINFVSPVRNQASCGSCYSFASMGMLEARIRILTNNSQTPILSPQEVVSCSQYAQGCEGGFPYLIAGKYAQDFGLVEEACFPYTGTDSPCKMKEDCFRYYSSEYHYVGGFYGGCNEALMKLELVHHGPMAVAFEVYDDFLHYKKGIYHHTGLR
recombinant human DPP1 (rhDPP1), sequence (P53634 25-134): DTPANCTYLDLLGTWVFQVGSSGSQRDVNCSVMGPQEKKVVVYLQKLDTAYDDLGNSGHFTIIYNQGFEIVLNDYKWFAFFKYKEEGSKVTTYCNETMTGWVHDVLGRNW
recombinant human DPP1 (rhDPP1), sequence (P53634 395-463): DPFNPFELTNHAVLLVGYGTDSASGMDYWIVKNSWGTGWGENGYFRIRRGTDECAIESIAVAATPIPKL
Assay type: biochemical
Protocol: Test A1: Fluorescence Assay for Recombinant Human (RH) DPP1
The activity of DPP1 was determined by measuring the enzymatic release of aminomethyl coumarin (AMC) from the peptide substrate (H-Gly-Arg-AMC), which leads to an increase in fluorescence intensity at λex=350 nm and λem=450 nm. The assay was carried out in black 384 well plates in a final volume of 50 μl at 22° C. The assay conditions contained the following: 25 mM piperazine buffer pH 5.0; 50 mM NaCl, 5 mM DTT; 0.01% (v/v) Triton X-100; 100 μM H-Gly-Arg-AMC and rhDPP1 (˜50 pM). […] Routinely, inhibitors were pre-incubated with rhDPP1 for 30-60 min prior to the addition of the peptide substrate to start the reaction for a further 60 min at 22° C.
N#C[C@H](Cc1ccc(-c2ccc3scnc3c2)cc1)NC(=O)[C@@H]1CNCCCO1 [Example 33, (2S)-N-{(1S)-2-[4-(1,3-Benzothiazol-5-yl)phenyl]-1-cyanoethyl}-1,4-oxazepane-2-carboxamide] was tested, and the “DPP1 activity, pIC50” value was 7.21. In the case of COCCn1c(=O)oc2ccc(-c3ccc(C[C@@H](C#N)NC(=O)[C@@H]4CNCCCO4)cc3)cc21 [Example 21, (2S)-N-[(1S)-1-Cyano-2-{4-[3-(2-methoxyethyl)-2-oxo-2,3-dihydro-1,3-benzoxazol-5-yl]phenyl}ethyl]-1,4-oxazepane-2-carboxamide], the “DPP1 activity, pIC50” value is reported as 8.09. For N#C[C@H](Cc1ccc(-c2ccc(S(=O)(=O)N3CCC3)cc2)cc1)NC(=O)[C@@H]1CNCCCO1 [Example 31, (2S)-N-{(1S)-2-[4′-(Azetidin-1-ylsulfonyl)biphenyl-4-yl]-1-cyanoethyl}-1,4-oxazepane-2-carboxamide], the “DPP1 activity, pIC50” value was 7.67. For N#Cc1ccc(-c2ccc(C[C@@H](C#N)NC(=O)[C@@H]3CNCCCO3)cc2)cn1 [Example 8, (2S)-N-{(1S)-1-Cyano-2-[4-(6-cyanopyridin-3-yl)phenyl]ethyl}-1,4-oxazepane-2-carboxamide], the “DPP1 activity, pIC50” value was 7.06. For CN1C(=O)CSc2ccc(-c3ccc(C[C@@H](C#N)NC(=O)[C@@H]4CNCCCO4)cc3)cc21 [Example 9, (2S)-N-{(1S)-1-Cyano-2-[4-(4-methyl-3-oxo-3,4-dihydro-2H-1,4-benzothiazin-6-yl)phenyl]ethyl}-1,4-oxazepane-2-carboxamide], the “DPP1 activity, pIC50” value was 7.89. In the case of CCn1c(=O)oc2c(C)cc(-c3ccc(C[C@@H](C#N)NC(=O)[C@@H]4CNCCCO4)cc3)cc21 [Example 10, (2S)-N-{(1S)-1-Cyano-2-[4-(3-ethyl-7-methyl-2-oxo-2,3-dihydro-1,3-benzoxazol-5-yl)phenyl]ethyl}-1,4-oxazepane-2-carboxamide], the “DPP1 activity, pIC50” value is reported as 7.67. For N#C[C@H](Cc1ccc(-c2ccc(C(F)(F)F)cc2)cc1)NC(=O)[C@@H]1CNCCCO1 [Example 6, (2S)-N-{(1S)-1-Cyano-2-[4′-(trifluoromethyl)biphenyl-4-yl]ethyl}-1,4-oxazepane-2-carboxamide], the “DPP1 activity, pIC50” value was 7.44. CN1C(=O)C(F)(F)c2ccc(-c3ccc(C[C@@H](C#N)NC(=O)[C@@H]4CNCCCO4)cc3)cc21 [Example 14, (2S)-N-{(1S)-1-Cyano-2-[4-(3,3-difluoro-1-methyl-2-oxo-2,3-dihydro-1H-indol-6-yl)phenyl]ethyl}-1,4-oxazepane-2-carboxamide] was tested, and the “DPP1 activity, pIC50” value was 7.78. For N#C[C@H](Cc1ccc(-c2ccc3oc(=O)n(CC4CC4)c3c2)cc1)NC(=O)[C@@H]1CNCCCO1 [Example 17, (2S)-N-[(1S)-1-Cyano-2-{4-[3-(cyclopropylmethyl)-2-oxo-2,3-dihydro-1,3-benzoxazol-5-yl]phenyl}ethyl]-1,4-oxazepane-2-carboxamide], the “DPP1 activity, pIC50” value was 8.2. With Cn1c(=O)ccc2ccc(-c3ccc(C[C@@H](C#N)NC(=O)[C@@H]4CNCCCO4)cc3)cc21 [Example 24, (2S)-N-{(1S)-1-Cyano-2-[4-(1-methyl-2-oxo-1,2-dihydroquinolin-7-yl)phenyl]ethyl}-1,4-oxazepane-2-carboxamide] the “DPP1 activity, pIC50” value was 7.86. For COCCn1c(=O)sc2ccc(-c3ccc(C[C@@H](C#N)NC(=O)[C@@H]4CNCCCO4)cc3)cc21 [Example 18, (2S)-N-[(1S)-1-Cyano-2-{4-[3-(2-methoxyethyl)-2-oxo-2,3-dihydro-1,3-benzothiazol-5-yl]phenyl}ethyl]-1,4-oxazepane-2-carboxamide], the “DPP1 activity, pIC50” value was 8.5. In the case of CC(C)(O)Cn1c(=O)oc2ccc(-c3ccc(C[C@@H](C#N)NC(=O)[C@@H]4CNCCCO4)cc3)cc21 [Example 11, (2S)-N-[(1S)-1-Cyano-2-{4-[3-(2-hydroxy-2-methylpropyl)-2-oxo-2,3-dihydro-1,3-benzoxazol-5-yl]phenyl}ethyl]-1,4-oxazepane-2-carboxamide], the “DPP1 activity, pIC50” value is reported as 7.05. In the case of N#C[C@H](Cc1ccc(-c2ccc3oc(=O)n(CC(F)(F)F)c3c2)cc1)NC(=O)[C@@H]1CNCCCO1 [Example 28, (2S)-N-[(1S)-1-Cyano-2-{4-[2-oxo-3-(2,2,2-trifluoroethyl)-2,3-dihydro-1,3-benzoxazol-5-yl]phenyl}ethyl]-1,4-oxazepane-2-carboxamide], the “DPP1 activity, pIC50” value is reported as 8.09. In the case of N#C[C@H](Cc1ccc(-c2ccc(F)c(F)c2)cc1)NC(=O)[C@@H]1CNCCCO1 [Example 7, (2S)-N-[(1S)-1-Cyano-2-(3′,4′-difluorobiphenyl-4-yl)ethyl]-1,4-oxazepane-2-carboxamide], the “DPP1 activity, pIC50” value is reported as 7.16. CN1C(=O)COc2ccc(-c3ccc(C[C@@H](C#N)NC(=O)[C@@H]4CNCCCO4)cc3)cc21 [Example 20, (2S)-N-{(1S)-1-Cyano-2-[4-(4-methyl-3-oxo-3,4-dihydro-2H-1,4-benzoxazin-6-yl)phenyl]ethyl}-1,4-oxazepane-2-carboxamide] was tested, and the “DPP1 activity, pIC50” value was 7.9. N#C[C@H](Cc1ccc(-c2ccc3oc(=O)n(CC(F)F)c3c2)cc1)NC(=O)[C@@H]1CNCCCO1 [Example 27, (2S)-N-[(1S)-1-Cyano-2-{4-[3-(2,2-difluoroethyl)-2-oxo-2,3-dihydro-1,3-benzoxazol-5-yl]phenyl}ethyl]-1,4-oxazepane-2-carboxamide] was tested, and the “DPP1 activity, pIC50” value was 8.18. Cn1c(=O)oc2c(Cl)cc(-c3ccc(C[C@@H](C#N)NC(=O)[C@@H]4CNCCCO4)cc3)cc21 [Example 26, (2S)-N-{(1S)-2-[4-(7-Chloro-3-methyl-2-oxo-2,3-dihydro-1,3-benzoxazol-5-yl)phenyl]-1-cyanoethyl}-1,4-oxazepane-2-carboxamide] was tested, and the “DPP1 activity, pIC50” value was 7.87. For Cn1c(=O)sc2ccc(-c3ccc(C[C@@H](C#N)NC(=O)[C@@H]4CNCCCO4)cc3)cc21 [Example 29, (2S)-N-{(1S)-1-Cyano-2-[4-(3-methyl-2-oxo-2,3-dihydro-1,3-benzothiazol-5-yl)phenyl]ethyl}-1,4-oxazepane-2-carboxamide], the “DPP1 activity, pIC50” value was 8.62. For Cn1c(=O)oc2c(F)cc(-c3ccc(C[C@@H](C#N)NC(=O)[C@@H]4CNCCCO4)cc3)cc21 [Example 15, (2S)-N-{(1S)-1-Cyano-2-[4-(7-fluoro-3-methyl-2-oxo-2,3-dihydro-1,3-benzoxazol-5-yl)phenyl]ethyl}-1,4-oxazepane-2-carboxamide], the “DPP1 activity, pIC50” value was 8.29. Cc1noc2ccc(-c3ccc(C[C@@H](C#N)NC(=O)[C@@H]4CNCCCO4)cc3)cc12 [Example 5, (2S)-N-{(1S)-1-Cyano-2-[4-(3-methyl-1,2-benzoxazol-5-yl)phenyl]ethyl}-1,4-oxazepane-2-carboxamide] was tested, and the “DPP1 activity, pIC50” value was 7.79. In the case of N#C[C@H](Cc1ccc(-c2cc(F)c3oc(=O)n(CC(F)F)c3c2)cc1)NC(=O)[C@@H]1CNCCCO1 [Example 12, (2S)-N-[(1S)-1-Cyano-2-{4-[3-(2,2-difluoroethyl)-7-fluoro-2-oxo-2,3-dihydro-1,3-benzoxazol-5-yl]phenyl}ethyl]-1,4-oxazepane-2-carboxamide], the “DPP1 activity, pIC50” value is reported as 8.0. For N#C[C@H](Cc1ccc(-c2ccc(F)cc2)cc1)NC(=O)[C@@H]1CNCCCO1 [Example 32, (2S)-N-[(1S)-1-Cyano-2-(4′-fluorobiphenyl-4-yl)ethyl]-1,4-oxazepane-2-carboxamide], the “DPP1 activity, pIC50” value was 7.37. With N#Cc1ccc(-c2ccc(C[C@@H](C#N)NC(=O)[C@@H]3CNCCCO3)cc2)s1 [Example 22, (2S)-N-{(1S)-1-Cyano-2-[4-(5-cyanothiophen-2-yl)phenyl]ethyl}-1,4-oxazepane-2-carboxamide] the “DPP1 activity, pIC50” value was 7.71. With N#C[C@H](Cc1ccc(-c2ccc3oc(=O)n(CC4CCOCC4)c3c2)cc1)NC(=O)[C@@H]1CNCCCO1 [Example 25, (2S)-N-[(1S)-1-Cyano-2-{4-[2-oxo-3-(tetrahydro-2H-pyran-4-ylmethyl)-2,3-dihydro-1,3-benzoxazol-5-yl]phenyl}ethyl]-1,4-oxazepane-2-carboxamide] the “DPP1 activity, pIC50” value was 7.97.

Same assay, conditions: Test A1 (Examples 1-35); rhDPP1 ~50 pM, 100 μM H-Gly-Arg-AMC, pH 5.0, 22° C.; read-out: DPP1 activity, pIC50 (converted)
In the case of N#Cc1ccc(-c2ccc(C[C@@H](C#N)NC(=O)C3CNCCCO3)cc2)cc1 (mixture of isomers) [Example 34, Diastereomeric mixture of (2S)-N-[(1S)-1-cyano-2-(4′-cyanobiphenyl-4-yl)ethyl]-1,4-oxazepane-2-carboxamide and (2R)—N-[(1S)-1-cyano-2-(4′-cyanobiphenyl-4-yl)ethyl]-1,4-oxazepane-2-carboxamide], the IC50 is reported as 60.3 nM.
